{"source": "patent US4160028A", "about": "“Substituted 2-cyclopropyl-chromones and pharmaceutical compositions and use thereof” (Carlo Erba S.p.A., priority 1977, dated 1979)", "assay": "seven days indicative acute toxicity after oral administration", "conditions": "rat, in vivo, rats", "procedure": "Seven days indicative acute toxicity after oral administration was assessed for the compounds of the invention. For example, for the compound identified by the code K 13262, a LD50 >400 mg/kg in rats was obtained.", "data": [{"smiles": "CCCc1c([C@@H]2C[C@H]2c2ccccc2)oc2ccc(C(=O)O)cc2c1=O", "note": "(relative stereo) [K 13262, trans 6-carboxy-3-propyl-2-(2-phenyl-cyclopropyl)-chromone]", "values": [{"measurement": "LD50 at 168 h", "value": "> 400", "unit": "mg/kg"}]}]}
